Measured values published in US20060252918A1, “Use of hepatitis virus (hcv) p7 protein” (priority 2002, published 2006).

B1: hepatitis C virus (HCV) p7 protein (other)
chain: ALENLVVLNAASVAGAHGILSFLVFFCAAWYIKGRLAPGAAYAFYGVWPLLLLLLALPPRAYA
notes: mature; p7 expressed alone in hepatocyte-derived (HepG2) cells; The mammalian expression construct is not described; p7 is the 63-residue part of it

Assays:
[1] = biological target: T1, HISp7 (HCV p7 with 6-HIS linker) (Hepatitis C virus genotype 1b, UniProt O92972); assay type: biochemical, hepatitis C virus 1B (J4 isolate)
T1 construct: the p7 protein of HCV is a 63 amino acid protein; GST (N, cleaved yes); made in house; host or cells: E. coli (pGEXHISp7 in pGEX4T1; DH5alpha is named for cloning)
T1 sequence (O92972 747-809 limits assumed): B1 chain

HCV p7 = biological target: T2, HCV p7 (Hepatitis C virus genotype 1b, UniProt O92972); assay type: cell-based
T2 construct: the p7 protein of HCV is a 63 amino acid protein; expressed in transfected cells; host or cells: Vero cells (T7-driven expression, lipofectamine transfection)
T2 sequence (O92972 747-809 limits assumed): B1 chain

[2] = biological target: the molecule itself; assay: self-association in HepG2 cell membranes

Molecule	inhibition of ion channel formation by HISp7 [1]	inhibition of HA transport facilitated by HCV p7 (HCV p7)	binding result [2]
NC12CC3CC(CC(C3)C1)C2 [amantadine]	inhibits ion channel formation by HISp7 FIG. 9) in the micromolar range	HA transport is inhibited	
B1			binds
